IC50 data for 16 compounds are collected here from patent US10875851B2, “Factor XIIa inhibitors” (Merck Sharp & Dohme Corp., priority 2016, dated 2020).

Chain of human Factor XIIa (P00748 373-615): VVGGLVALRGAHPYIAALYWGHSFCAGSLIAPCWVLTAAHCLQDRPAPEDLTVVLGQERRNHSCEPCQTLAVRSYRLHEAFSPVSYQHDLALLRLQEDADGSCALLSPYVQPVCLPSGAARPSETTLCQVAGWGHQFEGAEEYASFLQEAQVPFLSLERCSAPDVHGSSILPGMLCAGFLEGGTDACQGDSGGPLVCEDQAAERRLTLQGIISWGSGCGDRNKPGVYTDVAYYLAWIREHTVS

The target of this assay is human Factor XIIa (Homo sapiens (Human), UniProt P00748). Kind of assay: Factor XIIa Assay. It counts as biochemical. Conditions: purified human Factor XIIa 500 pM; substrate n-Acetyl-Lys-Pro-Arg-AFC 100 μM; pH 7.4; read-out: FXIIa IC50. In a few lines:
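Purified human FXIIa at 500 pM final with 100 μM n-Acetyl-Lys-Pro-Arg-AFC in 50 mM HEPES, 150 mM NaCl, 5 mM CaCl2, 0.1% PEG 8000, pH 7.4, at room temperature or 37° C. Initial fluorogenic hydrolysis rates measured after enzyme–inhibitor equilibration; IC50 taken where Vi=Vo/2.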
One may read the IC50 as the midpoint of a concentration-inhibition curve. Turning to `C[C@@H]1N=C(N2CCN(C(=O)[C@@H](CCCCNS(C)(=O)=O)NC3CCCCC3)[C@H](C(=O)NCc3cccs3)C2)O[C@H]1c1cccc(Cl)c1` [Example 125, (2S)-4-[(4S,5S)-5-(3-chlorophenyl)-4-methyl-4,5-dihydro-1,3-oxazol-2-yl]-1-[N^2-cyclohexyl-N^6-(methylsulfonyl)-D-lysyl]-N-(thiophen-2-ylmethyl)piperazine-2-carboxamide], the 50% inhibitory concentration (IC50) was found to be 23 nM. As to `CS(=O)(=O)NCCCC[C@@H](NC1CCCCC1)C(=O)N1CCN(C2=NCC3(CCCCC3)O2)C[C@H]1C(=O)NCc1cccs1` [Example 126, (2S)-1-[N^2-cyclohexyl-N^6-(methylsulfonyl)-D-lysyl]-4-(1-oxa-3-azaspiro[4.5]dec-2-en-2-yl)-N-(thiophen-2-ylmethyl)piperazine-2-carboxamide], the IC50 came to 21.1 nM.

On to `C[C@@H]1N=C(N2CCN(C(=O)[C@@H](CCCCNS(C)(=O)=O)NC3CCCCC3)[C@H](C(=O)NCc3cccs3)C2)O[C@H]1c1ccccc1C#N` [Example 127, (2S)-4-[(4S,5S)-5-(2-cyanophenyl)-4-methyl-4,5-dihydro-1,3-oxazol-2-yl]-1-[N^2-cyclohexyl-N^6-(methylsulfonyl)-D-lysyl]-N-(thiophen-2-ylmethyl)piperazine-2-carboxamide], for which the IC50 is 18.7 nM. As for `C[C@@H]1N=C(N2CCN(C(=O)[C@@H](CCCCNS(C)(=O)=O)NC3CCC4(CC3)CCN(Cc3ccccc3)C4)[C@H](C(=O)NCc3cccs3)C2)O[C@H]1c1ccccc1` (stereo partly drawn) [Example 128, (2S)-1-[N^2-(2-benzyl-2-azaspiro[4.5]dec-8-yl)-N^6-(methylsulfonyl)-D-lysyl]-4-[(4S,5S)-4-methyl-5-phenyl-4,5-dihydro-1,3-oxazol-2-yl]-N-(thiophen-2-ylmethyl)piperazine-2-carboxamide], the IC50 is 10.2 nM. As for `C[C@@H]1N=C(N2CCN(C(=O)[C@@H](CCCCN)NC3CCC4(CC3)CCN(Cc3ccccc3)C4)[C@H](C(=O)NCc3cccs3)C2)O[C@H]1c1ccccc1` (stereo partly drawn) [Example 129, (2S)-1-[N^2-(2-benzyl-2-azaspiro[4.5]dec-8-yl)-D-lysyl]-4-[(4S,5S)-4-methyl-5-phenyl-4,5-dihydro-1,3-oxazol-2-yl]-N-(thiophen-2-ylmethyl)piperazine-2-carboxamide], the figure is 13 nM; as for `C[C@@H]1N=C(N2CCN(C(=O)[C@@H](CCCCN(C)C)NC3CCC4(CC3)CCN(Cc3ccccc3)C4)[C@H](C(=O)NCc3cccs3)C2)O[C@H]1c1ccccc1` (stereo partly drawn) [Example 130, (2S)-1-[N^2-(2-benzyl-2-azaspiro[4.5]dec-8-yl)-N^6,N^6-dimethyl-D-lysyl]-4-[(4S,5S)-4-methyl-5-phenyl-4,5-dihydro-1,3-oxazol-2-yl]-N-(thiophen-2-ylmethyl)piperazine-2-carboxamide], 1.2 nM. As for `C[C@@H]1N=C(N2CCN(C(=O)[C@@H](CCCCN(C)C)N(C)C3CCC4(CC3)CCN(Cc3ccccc3)C4)[C@H](C(=O)NCc3cccs3)C2)O[C@H]1c1ccccc1` (stereo partly drawn) [Example 131, (2S)-1-[N^2-(2-benzyl-2-azaspiro[4.5]dec-8-yl)-N^2,N^6,N^6-trimethyl-D-lysl]-4-[(4S,5S)-4-methyl-5-phenyl-4,5-dihydro-1,3-oxazol-2-yl]-N-(thiophen-2-ylmethyl)piperazine-2-carboxamide], the figure is 1.8 nM. On to `C[C@@H]1N=C(N2CCN(C(=O)[C@@H](CCCCN(C)C)NC3CCC(CN)CC3)[C@H](C(=O)NCc3cccs3)C2)O[C@H]1c1ccccc1` (stereo partly drawn) [Example 133, (2S)-1-{N^2-[4-(aminomethyl)cyclohexyl]-N^6,N^6-dimethyl-D-lysyl}-4-[(4S,5S)-4-methyl-5-phenyl-4,5-dihydro-1,3-oxazol-2-yl]-N-(thiophen-2-ylmethyl)piperazine-2-carboxamide], for which the concentration for half-maximal inhibition (IC50) was 6.6 nM. As for `Cc1cccc([C@@H]2OC(N3CCN(C(=O)[C@@H](CCCCNS(C)(=O)=O)NC4CCCCC4)[C@H](C(=O)NCc4cccs4)C3)=N[C@H]2C)c1` [Example 134, (2S)-1-[N^2-cyclohexyl-N^6-(methylsulfonyl)-D-lysyl]-4-[(4S,5S)-4-methyl-5-(3-methylphenyl)-4,5-dihydro-1,3-oxazol-2-yl]-N-(thiophen-2-ylmethyl)piperazine-2-carboxamide], the figure is 10.3 nM.

As for `C[C@@H]1N=C(N2CCN(C(=O)[C@@H](CCCCN(C)C)NC3CCC4(CC3)CCN(Cc3ccccc3)C4)[C@H](C(=O)NCc3cccs3)C2)O[C@H]1c1ccccc1` (stereo partly drawn) [Example 135, (2S)-1-[N^2-(2-benzyl-2-azaspiro[4.5]dec-8-yl)-N^6,N^6-dimethyl-D-lysyl]-4-[(4S,5S)-4-methyl-5-phenyl-4,5-dihydro-1,3-oxazol-2-yl]-N-(thiophen-2-ylmethyl)piperazine-2-carboxamide], the IC50 is 0.8 nM. As for `C[C@@H]1N=C(N2CCN(C(=O)[C@H](CCCCN(C)C)NC3CCC4(CC3)CCN(Cc3ccccc3)C4)[C@H](C(=O)NCc3cccs3)C2)O[C@H]1c1ccccc1` (stereo partly shown) [Example 136], the figure is 23.2 nM; as for `CC1(C)N=C(N2CCN(C(=O)[C@@H](CC3CCCCC3)NC3CCCCC3)[C@H](C(=O)NCc3cccs3)C2)OC1c1ccccc1` (stereo partly drawn) [Example 137, (2S)-1-(N,3-dicyclohexyl-D-alanyl)-4-(4,4-dimethyl-5-phenyl-4,5-dihydro-1,3-oxazol-2-yl)-N-(thiophen-2-ylmethyl)piperazine-2-carboxamide], 23.2 nM. The figure for `C[C@@H]1N=C(N2CCN(C(=O)[C@@H](CCCCN(C)C)NC3CCCCC3)[C@H](C(=O)NCc3cccs3)C2)O[C@H]1c1cccc(C#N)c1` [Example 138, (2S)-4[(4S,5S)-5-(3-cyanophenyl)-4-methyl-4,5-dihydro-1,3-oxazol-2-yl]-1-(N^2-cyclohexyl-N^6,N^6-dimethyl-D-lysyl)-N-(thiophen-2-ylmethyl)piperazine-2-carboxamide] is 1.4 nM. As for `CN(C)CCCC[C@H](C(=O)N1CCN(C2=NC(C)(C)C(c3ccccc3)O2)C[C@H]1C(=O)NCc1cccc(Cl)c1)N(C)C` (stereo partly drawn) [Example 139, (2S)-N-(3-chlorobenzyl)-4-(4,4-dimethyl-5-phenyl-4,5-dihydro-1,3-oxazol-2-yl)-1-(N^2,N^2,N^6,N^6-tetramethyl-D-lysyl)piperazine-2-carboxamide], the figure is 52.4 nM.

For `CC1(C)N=C(N2CCN(C(=O)[C@@H](CC3CCCCC3)NC3CCCCC3)[C@H](C(=O)NCc3cccs3)C2)OC1c1ccccc1` (stereo partly drawn) [Example 140, (2S)-1-(N,3-dicyclohexyl-D-alanyl)-4-(4,4-dimethyl-5-phenyl-4,5-dihydro-1,3-oxazol-2-yl)-N-(thiophen-2-ylmethyl)piperazine-2-carboxamide], the IC50 is 19 nM.

As to `CN(C)CCCC[C@@H](NC1CCC2(CC1)CCN(Cc1ccccc1)C2)C(=O)N1CCN(C2=NC(C)(C)CO2)C[C@H]1C(=O)NCc1cccs1` (stereo partly drawn) [Example 141, (2S)-1-[N^2-(2-benzyl-2-azaspiro[4.5]dec-8-yl)-N^6,N^6-dimethyl-D-lysyl]-4-(4,4-dimethyl-4,5-dihydro-1,3-oxazol-2-yl)-N-(thiophen-2-ylmethyl)piperazine-2-carboxamide], the half-inhibitory concentration (IC50) was 9.2 nM.
